Measured values as given in patent US10308639B2, “Phosphatidylinositol 3-kinase inhibitors” (Gilead Sciences, Inc., priority 2014, dated 2019).
Read-outs that look alike come from different tables or passages of the source.

How the values were obtained:
Type in all cases: biochemical
PI3Kβ = target: T1, PI3Kβ (Homo sapiens, UniProt P42338); test: TR-FRET enzymatic activity assay, PI3Kβ; settings: Table 2; TR-FRET, 2x Km ATP, 30 minutes at 25° C.
T1 construct: made in house

PI3Kδ = target: T2, PI3Kδ (Homo sapiens, UniProt O00329); test: TR-FRET enzymatic activity assay, PI3Kδ; settings: Table 2; TR-FRET, 2x Km ATP, 30 minutes at 25° C.
T2 construct: made in house

PI3Kγ = target: T3, PI3Kγ (Homo sapiens, UniProt P48736); test: TR-FRET enzymatic activity assay, PI3Kγ; settings: read-out: PI3Kγ IC50
T3 construct: made in house
Protocol: The compounds of formula (I) were characterized for their enzymatic activity against the PI3K isoforms. The activities were measured using a time-resolved fluorescence resonance energy transfer (TR-FRET) assay.

[1] = Table 2, TR-FRET, 2x Km ATP, 30 minutes at 25° C.

T2 sequence (O00329 whole entry): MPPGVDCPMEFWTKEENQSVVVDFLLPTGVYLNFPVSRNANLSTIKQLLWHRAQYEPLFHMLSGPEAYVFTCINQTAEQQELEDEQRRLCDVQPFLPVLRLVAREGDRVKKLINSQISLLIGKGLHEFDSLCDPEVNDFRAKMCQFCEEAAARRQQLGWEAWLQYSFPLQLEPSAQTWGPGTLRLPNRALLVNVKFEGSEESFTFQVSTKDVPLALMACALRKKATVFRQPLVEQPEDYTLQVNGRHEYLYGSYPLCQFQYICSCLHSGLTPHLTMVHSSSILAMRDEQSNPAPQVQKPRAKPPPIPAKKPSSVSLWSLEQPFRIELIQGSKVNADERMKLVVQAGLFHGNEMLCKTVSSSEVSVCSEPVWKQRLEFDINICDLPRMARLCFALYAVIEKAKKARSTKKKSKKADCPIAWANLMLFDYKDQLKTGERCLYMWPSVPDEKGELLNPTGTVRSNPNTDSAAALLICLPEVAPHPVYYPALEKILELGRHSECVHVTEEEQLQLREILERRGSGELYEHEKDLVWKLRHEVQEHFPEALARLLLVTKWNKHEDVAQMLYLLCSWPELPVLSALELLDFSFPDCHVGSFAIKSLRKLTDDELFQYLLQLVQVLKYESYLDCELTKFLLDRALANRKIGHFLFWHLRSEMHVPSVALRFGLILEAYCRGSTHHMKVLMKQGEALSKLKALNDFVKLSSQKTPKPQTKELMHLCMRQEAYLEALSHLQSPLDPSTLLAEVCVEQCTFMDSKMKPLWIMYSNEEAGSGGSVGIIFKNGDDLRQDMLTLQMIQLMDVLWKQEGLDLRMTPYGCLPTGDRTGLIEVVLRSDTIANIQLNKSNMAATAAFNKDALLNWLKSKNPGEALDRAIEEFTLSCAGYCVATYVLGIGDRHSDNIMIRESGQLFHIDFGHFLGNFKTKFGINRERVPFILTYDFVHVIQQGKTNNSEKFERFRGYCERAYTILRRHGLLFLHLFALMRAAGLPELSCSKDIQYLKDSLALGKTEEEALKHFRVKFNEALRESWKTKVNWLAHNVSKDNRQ
T2 sequence (P27986 whole entry partner): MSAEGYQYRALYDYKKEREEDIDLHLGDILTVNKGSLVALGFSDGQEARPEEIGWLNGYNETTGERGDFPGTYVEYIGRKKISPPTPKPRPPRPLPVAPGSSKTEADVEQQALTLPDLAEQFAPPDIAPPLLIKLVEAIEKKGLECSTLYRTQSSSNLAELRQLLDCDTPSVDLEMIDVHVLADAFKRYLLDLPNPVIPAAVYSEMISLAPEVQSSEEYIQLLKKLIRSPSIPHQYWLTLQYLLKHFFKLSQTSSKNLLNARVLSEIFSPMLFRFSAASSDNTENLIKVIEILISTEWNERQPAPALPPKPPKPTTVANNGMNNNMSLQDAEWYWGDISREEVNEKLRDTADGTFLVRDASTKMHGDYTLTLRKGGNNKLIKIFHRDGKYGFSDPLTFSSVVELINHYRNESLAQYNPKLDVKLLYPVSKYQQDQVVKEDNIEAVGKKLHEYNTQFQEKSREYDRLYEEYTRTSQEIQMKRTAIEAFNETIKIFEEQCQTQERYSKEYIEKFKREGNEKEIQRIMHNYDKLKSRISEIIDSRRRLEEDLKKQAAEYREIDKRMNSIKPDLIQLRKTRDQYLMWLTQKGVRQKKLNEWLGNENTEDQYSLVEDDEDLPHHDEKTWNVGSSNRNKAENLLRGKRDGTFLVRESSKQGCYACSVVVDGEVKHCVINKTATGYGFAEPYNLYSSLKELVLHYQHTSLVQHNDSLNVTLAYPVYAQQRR
T1 sequence (P42338 whole entry): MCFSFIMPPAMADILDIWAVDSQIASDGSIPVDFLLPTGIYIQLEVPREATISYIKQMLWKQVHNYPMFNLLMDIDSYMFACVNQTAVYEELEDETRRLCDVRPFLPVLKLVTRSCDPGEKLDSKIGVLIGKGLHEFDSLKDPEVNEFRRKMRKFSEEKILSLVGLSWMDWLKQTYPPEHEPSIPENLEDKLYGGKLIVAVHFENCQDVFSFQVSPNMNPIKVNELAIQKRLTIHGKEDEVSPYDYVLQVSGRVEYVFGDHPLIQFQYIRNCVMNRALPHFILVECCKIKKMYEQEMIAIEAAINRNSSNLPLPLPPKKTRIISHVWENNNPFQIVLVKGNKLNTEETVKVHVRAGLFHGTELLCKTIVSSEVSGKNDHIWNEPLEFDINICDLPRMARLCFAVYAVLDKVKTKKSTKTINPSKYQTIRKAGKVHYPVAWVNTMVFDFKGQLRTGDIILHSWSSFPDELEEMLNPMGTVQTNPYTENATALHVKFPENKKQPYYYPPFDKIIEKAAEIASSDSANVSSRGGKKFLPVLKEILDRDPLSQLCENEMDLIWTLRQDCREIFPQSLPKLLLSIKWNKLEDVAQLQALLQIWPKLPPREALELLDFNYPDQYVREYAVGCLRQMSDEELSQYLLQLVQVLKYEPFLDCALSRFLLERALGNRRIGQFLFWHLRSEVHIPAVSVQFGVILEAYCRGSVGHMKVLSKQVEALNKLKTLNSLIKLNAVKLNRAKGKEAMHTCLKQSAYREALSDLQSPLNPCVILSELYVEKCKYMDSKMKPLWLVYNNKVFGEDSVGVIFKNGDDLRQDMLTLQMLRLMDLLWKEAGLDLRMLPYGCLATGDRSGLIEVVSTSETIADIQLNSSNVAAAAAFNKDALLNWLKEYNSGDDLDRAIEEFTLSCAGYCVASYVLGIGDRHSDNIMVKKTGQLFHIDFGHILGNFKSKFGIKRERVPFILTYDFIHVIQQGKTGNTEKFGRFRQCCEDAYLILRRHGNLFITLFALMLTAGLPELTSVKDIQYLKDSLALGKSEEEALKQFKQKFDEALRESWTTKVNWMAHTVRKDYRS
T1 sequence (P27986 whole entry partner): as the sequence (P27986 whole entry partner) above
T3 sequence (P48736 whole entry): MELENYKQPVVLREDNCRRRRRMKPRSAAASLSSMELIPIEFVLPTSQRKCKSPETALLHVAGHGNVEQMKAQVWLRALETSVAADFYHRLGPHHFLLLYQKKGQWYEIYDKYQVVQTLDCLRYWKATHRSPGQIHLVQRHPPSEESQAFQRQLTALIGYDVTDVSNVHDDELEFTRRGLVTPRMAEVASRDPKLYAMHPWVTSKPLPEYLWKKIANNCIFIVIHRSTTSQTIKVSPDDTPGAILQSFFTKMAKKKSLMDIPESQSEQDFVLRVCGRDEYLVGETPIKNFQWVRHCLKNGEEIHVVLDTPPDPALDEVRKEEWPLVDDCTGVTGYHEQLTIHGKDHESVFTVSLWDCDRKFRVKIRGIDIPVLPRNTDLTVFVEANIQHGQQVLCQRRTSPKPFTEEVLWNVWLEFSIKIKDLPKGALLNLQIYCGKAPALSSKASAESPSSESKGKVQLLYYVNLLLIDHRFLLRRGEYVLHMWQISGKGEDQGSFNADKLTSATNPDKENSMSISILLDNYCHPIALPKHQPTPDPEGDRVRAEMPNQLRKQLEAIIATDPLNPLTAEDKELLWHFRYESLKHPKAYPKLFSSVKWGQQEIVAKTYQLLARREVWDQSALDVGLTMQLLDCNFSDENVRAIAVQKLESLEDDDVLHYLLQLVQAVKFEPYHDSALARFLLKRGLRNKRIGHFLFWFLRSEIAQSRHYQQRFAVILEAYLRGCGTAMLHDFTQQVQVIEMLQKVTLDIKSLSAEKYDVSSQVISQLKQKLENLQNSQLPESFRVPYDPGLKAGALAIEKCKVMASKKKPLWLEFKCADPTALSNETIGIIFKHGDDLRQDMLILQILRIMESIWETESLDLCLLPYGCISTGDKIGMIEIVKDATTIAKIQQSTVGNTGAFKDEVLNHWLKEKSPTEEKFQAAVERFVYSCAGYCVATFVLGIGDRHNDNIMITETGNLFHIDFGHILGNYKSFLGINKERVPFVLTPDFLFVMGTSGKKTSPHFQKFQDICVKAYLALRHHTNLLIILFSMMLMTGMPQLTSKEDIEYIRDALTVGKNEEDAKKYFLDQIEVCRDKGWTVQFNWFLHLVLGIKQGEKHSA

| IC50 (PI3Kβ) | IC50 (PI3Kδ) | IC50 (PI3Kγ; [1]) | IC50 (PI3Kγ) | Structure (SMILES) |
| --- | --- | --- | --- | --- |
| 2 nM | 0.7 nM | 71 nM | – | Cc1nc(N)nc(N[C@H](c2nc3cccc(Cl)c3c(=O)n2-c2cn[nH]c2)C2CC2)c1C#N [Compound 27, (S)-2-amino-4-(((5-chloro-4-oxo-3-(1H-pyrazol-4-yl)-3,4-dihydroquinazolin-2-yl)(cyclopropyl)methyl)amino)-6-methylpyrimidine-5-carbonitrile] |
| 3 nM | 6 nM | 440 nM | – | N#Cc1c(N)nc(N)nc1N[C@H](c1nc2c(Cl)cccc2c(=O)n1-c1cn[nH]c1)C1CC1 [Compound 29, (S)-2,4-diamino-6-(((8-chloro-4-oxo-3-(1H-pyrazol-4-yl)-3,4-dihydroquinazolin-2-yl)(cyclopropyl)methyl)amino)pyrimidine-5-carbonitrile] |
| 2 nM | 3 nM | 1300 nM | – | N#Cc1c(N)nc(N)nc1N[C@H](c1nc2c(Cl)cccc2c(=O)n1-c1cc[nH]n1)C1CC1 [Compound 30, (S)-2,4-diamino-6-(((8-chloro-4-oxo-3-(1H-pyrazol-3-yl)-3,4-dihydroquinazolin-2-yl)(cyclopropyl)methyl)amino)pyrimidine-5-carbonitrile] |
| 1 nM | 1 nM | 160 nM | – | N#Cc1c(N)nc(N)nc1N[C@H](c1nc2c(Cl)ccc(Cl)c2c(=O)n1-c1cn[nH]c1)C1CC1 [Compound 31, (S)-2,4-diamino-6-((cyclopropyl(5,8-dichloro-4-oxo-3-(1H-pyrazol-4-yl)-3,4-dihydroquinazolin-2-yl)methyl)amino)pyrimidine-5-carbonitrile] |
| 1 nM | 1 nM | 600 nM | – | N#Cc1c(N)nc(N)nc1N[C@H](c1nc2c(Cl)ccc(Cl)c2c(=O)n1-c1cc[nH]n1)C1CC1 [Compound 32, (S)-2,4-diamino-6-((cyclopropyl(5,8-dichloro-4-oxo-3-(1H-pyrazol-3-yl)-3,4-dihydroquinazolin-2-yl)methyl)amino)pyrimidine-5-carbonitrile] |
| 84 nM | 22 nM | 2000 nM | – | CC[C@H](Nc1nc(N)nc(N)c1C#N)c1nc2c(C)cccc2c(=O)n1-c1cn[nH]c1 [Compound 33, (S)-2,4-diamino-6-((1-(8-methyl-4-oxo-3-(1H-pyrazol-4-yl)-3,4-dihydroquinazolin-2-yl)propyl)amino)pyrimidine-5-carbonitrile] |
| 7 nM | 8 nM | 6100 nM | – | CC[C@H](Nc1nc(N)nc(N)c1C#N)c1nc2c(C)cccc2c(=O)n1-c1cc[nH]n1 [Compound 34, (S)-2,4-diamino-6-((1-(8-methyl-4-oxo-3-(1H-pyrazol-3-yl)-3,4-dihydroquinazolin-2-yl)propyl)amino)pyrimidine-5-carbonitrile] |
| 21 nM | 10 nM | 1400 nM | – | CC[C@H](Nc1nc(N)nc(N)c1C#N)c1nc2c(C)ccc(F)c2c(=O)n1-c1cn[nH]c1 [Compound 35, (S)-2,4-diamino-6-((1-(5-fluoro-8-methyl-4-oxo-3-(1H-pyrazol-4-yl)-3,4-dihydroquinazolin-2-yl)propyl)amino)pyrimidine-5-carbonitrile] |
| 2 nM | 5 nM | 4100 nM | – | CC[C@H](Nc1nc(N)nc(N)c1C#N)c1nc2c(C)ccc(F)c2c(=O)n1-c1cc[nH]n1 [Compound 36, (S)-2,4-diamino-6-((1-(5-fluoro-8-methyl-4-oxo-3-(1H-pyrazol-3-yl)-3,4-dihydroquinazolin-2-yl)propyl)amino)pyrimidine-5-carbonitrile] |
| 1 nM | 0.6 nM | 5100 nM | – | O=c1c2c(Cl)ccc(Cl)c2nc([C@@H](Nc2ncnc3scnc23)C2CC2)n1-c1cc[nH]n1 [Compound 37, (S)-5,8-dichloro-2-(cyclopropyl(thiazolo[5,4-d]pyrimidin-7-ylamino)methyl)-3-(1H-pyrazol-3-yl)quinazolin-4(3H)-one] |
| 9 nM | 4 nM | 1100 nM | – | O=c1c2c(Cl)ccc(Cl)c2nc([C@@H](Nc2ncnc3scnc23)C2CC2)n1-c1cn[nH]c1 [Compound 38, (S)-5,8-dichloro-2-(cyclopropyl(thiazolo[5,4-d]pyrimidin-7-ylamino)methyl)-3-(1H-pyrazol-4-yl)quinazolin-4(3H)-one] |
| 170 nM | 22 nM | 4700 nM | – | CC[C@H](Nc1ncnc2scnc12)c1nc2c(Cl)ccc(Cl)c2c(=O)n1-c1cn[nH]c1 [Compound 39, (S)-5,8-dichloro-3-(1H-pyrazol-4-yl)-2-(1-(thiazolo[5,4-d]pyrimidin-7-ylamino)propyl)quinazolin-4(3H)-one] |
| 280 nM | 38 nM | 8700 nM | – | CC[C@H](Nc1ncnn2ccnc12)c1nc2c(Cl)ccc(Cl)c2c(=O)n1-c1cn[nH]c1 [Compound 40, (S)-5,8-dichloro-2-(1-(imidazo[2,1-f][1,2,4]triazin-4-ylamino)propyl)-3-(1H-pyrazol-4-yl)quinazolin-4(3H)-one] |
| 88 nM | 13 nM | 1600 nM | – | CC[C@H](Nc1ncnc2cccnc12)c1nc2c(Cl)ccc(Cl)c2c(=O)n1-c1cn[nH]c1 [Compound 41, (S)-5,8-dichloro-3-(1H-pyrazol-4-yl)-2-(1-(pyrido[3,2-d]pyrimidin-4-ylamino)propyl)quinazolin-4(3H)-one] |
| 77 nM | 10 nM | 460 nM | – | CC[C@H](Nc1ncnc2ccc(Cl)nc12)c1nc2c(Cl)ccc(Cl)c2c(=O)n1-c1cn[nH]c1 [Compound 42, (S)-5,8-dichloro-2-(1-((6-chloropyrido[3,2-d]pyrimidin-4-yl)amino)propyl)-3-(1H-pyrazol-4-yl)quinazolin-4(3H)-one] |
| 39 nM | 9 nM | – | > 10000 nM | CC[C@H](Nc1ncnn2ccnc12)c1nc2c(Cl)ccc(Cl)c2c(=O)n1-c1cc[nH]n1 [Compound 43, (S)-5,8-dichloro-2-(1-(imidazo[2,1-f][1,2,4]triazin-4-ylamino)propyl)-3-(1H-pyrazol-3-yl)quinazolin-4(3H)-one] |
| 84 nM | 10 nM | – | > 10000 nM | CC[C@H](Nc1ncnc2cccnc12)c1nc2c(Cl)ccc(Cl)c2c(=O)n1-c1cc[nH]n1 [Compound 44, (S)-5,8-dichloro-3-(1H-pyrazol-3-yl)-2-(1-(pyrido[3,2-d]pyrimidin-4-ylamino)propyl)quinazolin-4(3H)-one] |
| 15 nM | 4 nM | – | > 10000 nM | CC[C@H](Nc1ncnc2ccc(Cl)nc12)c1nc2c(Cl)ccc(Cl)c2c(=O)n1-c1cc[nH]n1 [Compound 45, (S)-5,8-dichloro-2-(1-((6-chloropyrido[3,2-d]pyrimidin-4-yl)amino)propyl)-3-(1H-pyrazol-3-yl)quinazolin-4(3H)-one] |
| 18 nM | 4 nM | – | > 10000 nM | CC[C@H](Nc1ncnc2scnc12)c1nc2c(Cl)ccc(Cl)c2c(=O)n1-c1cc[nH]n1 [Compound 46, (S)-5,8-dichloro-3-(1H-pyrazol-3-yl)-2-(1-(thiazolo[5,4-d]pyrimidin-7-ylamino)propyl)quinazolin-4(3H)-one] |
| 11 nM | 11 nM | 2400 nM | – | O=c1c2c(Cl)cccc2nc([C@H](COCc2ccccc2)Nc2ncnc3scnc23)n1-c1cn[nH]c1 [Compound 47, (R)-2-(2-(benzyloxy)-1-(thiazolo[5,4-d]pyrimidin-7-ylamino)ethyl)-5-chloro-3-(1H-pyrazol-4-yl)quinazolin-4(3H)-one] |
| 9 nM | 8 nM | – | > 10000 nM | O=c1c2c(Cl)cccc2nc([C@H](COCc2ccccc2)Nc2ncnc3scnc23)n1-c1cc[nH]n1 [Compound 48, (R)-2-(2-(benzyloxy)-1-(thiazolo[5,4-d]pyrimidin-7-ylamino)ethyl)-5-chloro-3-(1H-pyrazol-3-yl)quinazolin-4(3H)-one] |
| 150 nM | 9 nM | 3500 nM | – | CC[C@H](Nc1nc(N)nc(N)c1C#N)c1nc2cccc(Cl)c2c(=O)n1-c1cc(CCCOC)[nH]n1 [Compound 49, (S)-2,4-diamino-6-((1-(5-chloro-3-(5-(3-methoxypropyl)-1H-pyrazol-3-yl)-4-oxo-3,4-dihydroquinazolin-2-yl)propyl)amino)pyrimidine-5-carbonitrile] |
| 47 nM | 7 nM | 1800 nM | – | O=c1c2c(Cl)cccc2nc([C@H](CO)Nc2ncnc3scnc23)n1-c1cn[nH]c1 [Compound 50, (R)-5-chloro-2-(2-hydroxy-1-(thiazolo[5,4-d]pyrimidin-7-ylamino)ethyl)-3-(1H-pyrazol-4-yl)quinazolin-4(3H)-one] |
| 9 nM | 2 nM | – | > 10000 nM | O=c1c2c(Cl)cccc2nc([C@H](CO)Nc2ncnc3scnc23)n1-c1cc[nH]n1 [Compound 51, (R)-5-chloro-2-(2-hydroxy-1-(thiazolo[5,4-d]pyrimidin-7-ylamino)ethyl)-3-(1H-pyrazol-3-yl)quinazolin-4(3H)-one] |
| 70 nM | 6 nM | – | > 10000 nM | CC[C@H](Nc1ncnc2[nH]cnc12)c1nc2c(Cl)ccc(Cl)c2c(=O)n1-c1cc[nH]n1 [Compound 52, (S)-2-(1-((9H-purin-6-yl)amino)propyl)-5,8-dichloro-3-(1H-pyrazol-3-yl)quinazolin-4(3H)-one] |
| 76 nM | 13 nM | – | > 10000 nM | CC[C@H](Nc1nc(F)nc2[nH]cnc12)c1nc2c(Cl)ccc(Cl)c2c(=O)n1-c1cc[nH]n1 [Compound 53, (S)-5,8-dichloro-2-(1-((2-fluoro-9H-purin-6-yl)amino)propyl)-3-(1H-pyrazol-3-yl)quinazolin-4(3H)-one] |
